Tests used:
Hepatotoxicity [1] = test system: Hepatotoxicity;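 on HepSE bilirubinemia: bilirubinemia hepatic side effect score drawn from the DILIps training data, a prediction system for drug-induced liver injury; call rule not given here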;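 on HepSE cholecystitis: Cholecystitis-related hepatic side effect score drawn from the DILIps (drug-induced liver injury prediction) training data set; call rule not given here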;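 on HepSE cholelithiasis: hepatic side effect score for cholelithiasis, drawn from the DILIps training data for predicting drug-induced liver injury; call rule not given here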;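 on HepSE cirrhosis: cirrhosis hepatic side effect score taken from the DILIps (drug-induced liver injury prediction) training set; call rule not given here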;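 on HepSE elevated liver function tests: hepatic side effect score for raised liver function tests, as recorded in the DILIps training set used for predicting drug-induced liver injury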; on HepSE hepatic failure: call rule not given here;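 on HepSE hepatomegaly: hepatic side effect score for hepatomegaly, taken from the training set of the DILIps drug-induced liver injury prediction system; call rule not given here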
Hepatotoxicity [2] = test system: Hepatotoxicity; remark: listed apart in the source;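 on HepSE bilirubinemia: bilirubinemia hepatic side effect score drawn from the DILIps training data, a prediction system for drug-induced liver injury; call rule not given here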;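 on HepSE cholecystitis: Cholecystitis-related hepatic side effect score drawn from the DILIps (drug-induced liver injury prediction) training data set; call rule not given here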;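 on HepSE cholelithiasis: hepatic side effect score for cholelithiasis, drawn from the DILIps training data for predicting drug-induced liver injury; call rule not given here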;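 on HepSE cirrhosis: cirrhosis hepatic side effect score taken from the DILIps (drug-induced liver injury prediction) training set; call rule not given here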;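 on HepSE elevated liver function tests: hepatic side effect score for raised liver function tests, as recorded in the DILIps training set used for predicting drug-induced liver injury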; on HepSE hepatic failure: call rule not given here;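 on HepSE hepatomegaly: hepatic side effect score for hepatomegaly, taken from the training set of the DILIps drug-induced liver injury prediction system; call rule not given here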
Hepatotoxicity [3] = test system: Hepatotoxicity; remark: listed apart in the source;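 on HepSE bilirubinemia: bilirubinemia hepatic side effect score drawn from the DILIps training data, a prediction system for drug-induced liver injury; call rule not given here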;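 on HepSE cholecystitis: Cholecystitis-related hepatic side effect score drawn from the DILIps (drug-induced liver injury prediction) training data set; call rule not given here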;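 on HepSE cholelithiasis: hepatic side effect score for cholelithiasis, drawn from the DILIps training data for predicting drug-induced liver injury; call rule not given here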;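 on HepSE cirrhosis: cirrhosis hepatic side effect score taken from the DILIps (drug-induced liver injury prediction) training set; call rule not given here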;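 on HepSE elevated liver function tests: hepatic side effect score for raised liver function tests, as recorded in the DILIps training set used for predicting drug-induced liver injury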; on HepSE hepatic failure: call rule not given here
Hepatotoxicity [4] = test system: Hepatotoxicity; remark: listed apart in the source;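 on HepSE bilirubinemia: bilirubinemia hepatic side effect score drawn from the DILIps training data, a prediction system for drug-induced liver injury; call rule not given here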;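 on HepSE cholecystitis: Cholecystitis-related hepatic side effect score drawn from the DILIps (drug-induced liver injury prediction) training data set; call rule not given here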;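 on HepSE cholelithiasis: hepatic side effect score for cholelithiasis, drawn from the DILIps training data for predicting drug-induced liver injury; call rule not given here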;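 on HepSE cirrhosis: cirrhosis hepatic side effect score taken from the DILIps (drug-induced liver injury prediction) training set; call rule not given here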;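 on HepSE elevated liver function tests: hepatic side effect score for raised liver function tests, as recorded in the DILIps training set used for predicting drug-induced liver injury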; on HepSE hepatic failure: call rule not given here
Hepatotoxicity [5] = test system: Hepatotoxicity; remark: listed apart in the source; on HepSE hepatic failure: call rule not given here
Hepatotoxicity [6] = test system: Hepatotoxicity; remark: listed apart in the source; on HepSE hepatic failure: call rule not given here
Hepatotoxicity [7] = test system: Hepatotoxicity; remark: listed apart in the source
Hepatotoxicity [8] = test system: Hepatotoxicity; remark: listed apart in the source
Hepatotoxicity [9] = test system: Hepatotoxicity; remark: listed apart in the source
Hepatotoxicity [10] = test system: Hepatotoxicity; remark: listed apart in the source
Hepatotoxicity [11] = test system: Hepatotoxicity; remark: listed apart in the source
Hepatotoxicity [12] = test system: Hepatotoxicity; remark: listed apart in the source
Hepatotoxicity [13] = test system: Hepatotoxicity; remark: listed apart in the source
Hepatotoxicity [14] = test system: Hepatotoxicity; remark: listed apart in the source

O=C1CN(/N=C/c2ccc([N+](=O)[O-])o2)C(=O)N1 [NITROFURANTOIN]
HepSE_bilirubinemia (Hepatotoxicity [1]; Liver): 0
HepSE_cholecystitis (Hepatotoxicity [2]; Liver): 0
HepSE_cholelithiasis (Hepatotoxicity [3]; Liver): 0
HepSE_cirrhosis (Hepatotoxicity [4]; Liver): 0
HepSE_elevated liver function tests (Hepatotoxicity [5]; Liver): 0
HepSE_hepatic failure (Hepatotoxicity [6]; Liver): 0
HepSE_hepatic necrosis (Hepatotoxicity [7]; Liver): 1
HepSE_hepatitis (Hepatotoxicity [8]; Liver): 1
HepSE_hepatomegaly (Hepatotoxicity [9]; Liver): 0
HepSE_jaundice (Hepatotoxicity [10]; Liver): 1
HepSE_liver disease (Hepatotoxicity [11]; Liver): 0
HepSE_liver fatty (Hepatotoxicity [12]; Liver): 0
HepSE_liver function tests abnormal (Hepatotoxicity [13]; Liver): 0
HepSE_Combined Scores (Hepatotoxicity [14]; Liver): 3

O=[N+]([O-])OCC(CO[N+](=O)[O-])O[N+](=O)[O-] [NITROGLYCERIN]
HepSE_bilirubinemia (Hepatotoxicity [1]): 0
HepSE_cholecystitis (Hepatotoxicity [2]): 0
HepSE_cholelithiasis (Hepatotoxicity [3]): 0
HepSE_cirrhosis (Hepatotoxicity [4]): 0
HepSE_elevated liver function tests (Hepatotoxicity [5]): 0
HepSE_hepatic failure (Hepatotoxicity [6]): 0
HepSE_hepatic necrosis (Hepatotoxicity [7]): 0
HepSE_hepatitis (Hepatotoxicity [8]): 0
HepSE_hepatomegaly (Hepatotoxicity [9]): 0
HepSE_jaundice (Hepatotoxicity [10]): 0
HepSE_liver disease (Hepatotoxicity [11]): 0
HepSE_liver fatty (Hepatotoxicity [12]): 0
HepSE_liver function tests abnormal (Hepatotoxicity [13]): 0
HepSE_Combined Scores (Hepatotoxicity [14]): 0

CNC(=C[N+](=O)[O-])NCCSCc1csc(CN(C)C)n1 [NIZATIDINE]
HepSE_bilirubinemia (Hepatotoxicity [1]): 0
HepSE_cholecystitis (Hepatotoxicity [2]): 0
HepSE_cholelithiasis (Hepatotoxicity [3]): 0
HepSE_cirrhosis (Hepatotoxicity [4]): 0
HepSE_elevated liver function tests (Hepatotoxicity [5]): 0
HepSE_hepatic failure (Hepatotoxicity [6]): 0
HepSE_hepatic necrosis (Hepatotoxicity [7]): 0
HepSE_hepatitis (Hepatotoxicity [8]): 1
HepSE_hepatomegaly (Hepatotoxicity [9]): 0
HepSE_jaundice (Hepatotoxicity [10]): 1
HepSE_liver disease (Hepatotoxicity [11]): 0
HepSE_liver fatty (Hepatotoxicity [12]): 0
HepSE_liver function tests abnormal (Hepatotoxicity [13]): 0
HepSE_Combined Scores (Hepatotoxicity [14]): 2

NC[C@H](O)c1ccc(O)c(O)c1 [NOREPINEPHRINE]
HepSE_bilirubinemia (Hepatotoxicity [1]): 0
HepSE_cholecystitis (Hepatotoxicity [2]): 0
HepSE_cholelithiasis (Hepatotoxicity [3]): 0
HepSE_cirrhosis (Hepatotoxicity [4]): 0
HepSE_elevated liver function tests (Hepatotoxicity [5]): 0
HepSE_hepatic failure (Hepatotoxicity [6]): 0
HepSE_hepatic necrosis (Hepatotoxicity [7]): 0
HepSE_hepatitis (Hepatotoxicity [8]): 0
HepSE_hepatomegaly (Hepatotoxicity [9]): 0
HepSE_jaundice (Hepatotoxicity [10]): 0
HepSE_liver disease (Hepatotoxicity [11]): 0
HepSE_liver fatty (Hepatotoxicity [12]): 0
HepSE_liver function tests abnormal (Hepatotoxicity [13]): 0
HepSE_Combined Scores (Hepatotoxicity [14]): 0

CCn1cc(C(=O)O)c(=O)c2cc(F)c(N3CCNCC3)cc21 [NORFLOXACIN]
HepSE_bilirubinemia (Hepatotoxicity [1]; Liver): 0
HepSE_cholecystitis (Hepatotoxicity [2]; Liver): 0
HepSE_cholelithiasis (Hepatotoxicity [3]; Liver): 0
HepSE_cirrhosis (Hepatotoxicity [4]; Liver): 0
HepSE_elevated liver function tests (Hepatotoxicity [5]; Liver): 1
HepSE_hepatic failure (Hepatotoxicity [6]; Liver): 1
HepSE_hepatic necrosis (Hepatotoxicity [7]; Liver): 1
HepSE_hepatitis (Hepatotoxicity [8]; Liver): 1
HepSE_hepatomegaly (Hepatotoxicity [9]; Liver): 0
HepSE_jaundice (Hepatotoxicity [10]; Liver): 1
HepSE_liver disease (Hepatotoxicity [11]; Liver): 0
HepSE_liver fatty (Hepatotoxicity [12]; Liver): 0
HepSE_liver function tests abnormal (Hepatotoxicity [13]; Liver): 0
HepSE_Combined Scores (Hepatotoxicity [14]; Liver): 5

CNCCC=C1c2ccccc2CCc2ccccc21 [NORTRIPTYLINE]
HepSE_bilirubinemia (Hepatotoxicity [1]; Liver): 0
HepSE_cholecystitis (Hepatotoxicity [2]; Liver): 0
HepSE_cholelithiasis (Hepatotoxicity [3]; Liver): 0
HepSE_cirrhosis (Hepatotoxicity [4]; Liver): 0
HepSE_elevated liver function tests (Hepatotoxicity [5]; Liver): 0
HepSE_hepatic failure (Hepatotoxicity [6]; Liver): 0
HepSE_hepatic necrosis (Hepatotoxicity [7]; Liver): 1
HepSE_hepatitis (Hepatotoxicity [8]; Liver): 1
HepSE_hepatomegaly (Hepatotoxicity [9]; Liver): 0
HepSE_jaundice (Hepatotoxicity [10]; Liver): 1
HepSE_liver disease (Hepatotoxicity [11]; Liver): 0
HepSE_liver fatty (Hepatotoxicity [12]; Liver): 0
HepSE_liver function tests abnormal (Hepatotoxicity [13]; Liver): 0
HepSE_Combined Scores (Hepatotoxicity [14]; Liver): 3

CC1COc2c(N3CCN(C)CC3)c(F)cc3c(=O)c(C(=O)O)cn1c23 (configuration not stated) [OFLOXACIN]
HepSE_bilirubinemia (Hepatotoxicity [1]): 0
HepSE_cholecystitis (Hepatotoxicity [2]): 1
HepSE_cholelithiasis (Hepatotoxicity [3]): 1
HepSE_cirrhosis (Hepatotoxicity [4]): 0
HepSE_elevated liver function tests (Hepatotoxicity [5]): 0
HepSE_hepatic failure (Hepatotoxicity [6]): 1
HepSE_hepatic necrosis (Hepatotoxicity [7]): 1
HepSE_hepatitis (Hepatotoxicity [8]): 1
HepSE_hepatomegaly (Hepatotoxicity [9]): 0
HepSE_jaundice (Hepatotoxicity [10]): 1
HepSE_liver disease (Hepatotoxicity [11]): 0
HepSE_liver fatty (Hepatotoxicity [12]): 0
HepSE_liver function tests abnormal (Hepatotoxicity [13]): 0
HepSE_Combined Scores (Hepatotoxicity [14]): 6

Cc1cc2c(s1)Nc1ccccc1N=C2N1CCN(C)CC1 [OLANZAPINE]
HepSE_bilirubinemia (Hepatotoxicity [1]): 1
HepSE_cholecystitis (Hepatotoxicity [2]): 0
HepSE_cholelithiasis (Hepatotoxicity [3]): 0
HepSE_cirrhosis (Hepatotoxicity [4]): 0
HepSE_elevated liver function tests (Hepatotoxicity [5]): 0
HepSE_hepatic failure (Hepatotoxicity [6]): 0
HepSE_hepatic necrosis (Hepatotoxicity [7]): 0
HepSE_hepatitis (Hepatotoxicity [8]): 1
HepSE_hepatomegaly (Hepatotoxicity [9]): 0
HepSE_jaundice (Hepatotoxicity [10]): 1
HepSE_liver disease (Hepatotoxicity [11]): 0
HepSE_liver fatty (Hepatotoxicity [12]): 1
HepSE_liver function tests abnormal (Hepatotoxicity [13]): 0
HepSE_Combined Scores (Hepatotoxicity [14]): 4

CCCc1nc(C(C)(C)O)c(C(=O)OCc2oc(=O)oc2C)n1Cc1ccc(-c2ccccc2-c2nnn[nH]2)cc1 [OLMESARTAN MEDOXOMIL]
HepSE_bilirubinemia (Hepatotoxicity [1]): 0
HepSE_cholecystitis (Hepatotoxicity [2]): 0
HepSE_cholelithiasis (Hepatotoxicity [3]): 0
HepSE_cirrhosis (Hepatotoxicity [4]): 0
HepSE_elevated liver function tests (Hepatotoxicity [5]): 0
HepSE_hepatic failure (Hepatotoxicity [6]): 0
HepSE_hepatic necrosis (Hepatotoxicity [7]): 0
HepSE_hepatitis (Hepatotoxicity [8]): 0
HepSE_hepatomegaly (Hepatotoxicity [9]): 0
HepSE_jaundice (Hepatotoxicity [10]): 1
HepSE_liver disease (Hepatotoxicity [11]): 0
HepSE_liver fatty (Hepatotoxicity [12]): 0
HepSE_liver function tests abnormal (Hepatotoxicity [13]): 0
HepSE_Combined Scores (Hepatotoxicity [14]): 1

CN(C)CC/C=C1/c2ccccc2COc2ccc(CC(=O)O)cc21 [OLOPATADINE]
HepSE_bilirubinemia (Hepatotoxicity [1]): 0
HepSE_cholecystitis (Hepatotoxicity [2]): 0
HepSE_cholelithiasis (Hepatotoxicity [3]): 0
HepSE_cirrhosis (Hepatotoxicity [4]): 0
HepSE_elevated liver function tests (Hepatotoxicity [5]): 0
HepSE_hepatic failure (Hepatotoxicity [6]): 0
HepSE_hepatic necrosis (Hepatotoxicity [7]): 0
HepSE_hepatitis (Hepatotoxicity [8]): 0
HepSE_hepatomegaly (Hepatotoxicity [9]): 0
HepSE_jaundice (Hepatotoxicity [10]): 0
HepSE_liver disease (Hepatotoxicity [11]): 0
HepSE_liver fatty (Hepatotoxicity [12]): 0
HepSE_liver function tests abnormal (Hepatotoxicity [13]): 0
HepSE_Combined Scores (Hepatotoxicity [14]): 0

COc1ccc2[nH]c([S+]([O-])Cc3ncc(C)c(OC)c3C)nc2c1 (configuration not stated) [OMEPRAZOLE]
HepSE_bilirubinemia (Hepatotoxicity [1]): 1
HepSE_cholecystitis (Hepatotoxicity [2]): 0
HepSE_cholelithiasis (Hepatotoxicity [3]): 1
HepSE_cirrhosis (Hepatotoxicity [4]): 0
HepSE_elevated liver function tests (Hepatotoxicity [5]): 0
HepSE_hepatic failure (Hepatotoxicity [6]): 1
HepSE_hepatic necrosis (Hepatotoxicity [7]): 1
HepSE_hepatitis (Hepatotoxicity [8]): 1
HepSE_hepatomegaly (Hepatotoxicity [9]): 0
HepSE_jaundice (Hepatotoxicity [10]): 1
HepSE_liver disease (Hepatotoxicity [11]): 1
HepSE_liver fatty (Hepatotoxicity [12]): 0
HepSE_liver function tests abnormal (Hepatotoxicity [13]): 0
HepSE_Combined Scores (Hepatotoxicity [14]): 7

Cc1nccn1CC1CCc2c(c3ccccc3n2C)C1=O (configuration not stated) [ONDANSETRON]
HepSE_bilirubinemia (Hepatotoxicity [1]): 0
HepSE_cholecystitis (Hepatotoxicity [2]): 0
HepSE_cholelithiasis (Hepatotoxicity [3]): 0
HepSE_cirrhosis (Hepatotoxicity [4]): 0
HepSE_elevated liver function tests (Hepatotoxicity [5]): 0
HepSE_hepatic failure (Hepatotoxicity [6]): 1
HepSE_hepatic necrosis (Hepatotoxicity [7]): 0
HepSE_hepatitis (Hepatotoxicity [8]): 0
HepSE_hepatomegaly (Hepatotoxicity [9]): 0
HepSE_jaundice (Hepatotoxicity [10]): 0
HepSE_liver disease (Hepatotoxicity [11]): 1
HepSE_liver fatty (Hepatotoxicity [12]): 0
HepSE_liver function tests abnormal (Hepatotoxicity [13]): 0
HepSE_Combined Scores (Hepatotoxicity [14]): 2

CCCCCCCCCCC[C@@H](C[C@@H]1OC(=O)[C@H]1CCCCCC)OC(=O)[C@H](CC(C)C)NC=O [ORLISTAT]
HepSE_bilirubinemia (Hepatotoxicity [1]): 0
HepSE_cholecystitis (Hepatotoxicity [2]): 0
HepSE_cholelithiasis (Hepatotoxicity [3]): 0
HepSE_cirrhosis (Hepatotoxicity [4]): 0
HepSE_elevated liver function tests (Hepatotoxicity [5]): 0
HepSE_hepatic failure (Hepatotoxicity [6]): 0
HepSE_hepatic necrosis (Hepatotoxicity [7]): 0
HepSE_hepatitis (Hepatotoxicity [8]): 1
HepSE_hepatomegaly (Hepatotoxicity [9]): 0
HepSE_jaundice (Hepatotoxicity [10]): 0
HepSE_liver disease (Hepatotoxicity [11]): 0
HepSE_liver fatty (Hepatotoxicity [12]): 0
HepSE_liver function tests abnormal (Hepatotoxicity [13]): 0
HepSE_Combined Scores (Hepatotoxicity [14]): 1
